The values below come from paper PMC7016953 (Cells, 2020).

One assay concerns T1, rTRPV2-YFP.
T1 construct: expressed in transfected cells
As to the kind of experiment: Selectivity profiling, fluo-4 [Ca2+]i response, TRPV2. Type of assay: cell-based, rat. On the procedure:
Human embryonic kidney 293 (HEK293) cells were stably transfected with expression plasmids that encode hTRPC3-YFP, hTRPC6-YFP, hTRPC7-YFP, mTRPC4ß-YFP, rTRPV1-CFP, rTRPV2-YFP, rTRPV3-YFP, mTRPV4-YFP, or hTRPM2 as previously described. Cell lines were cultured in Earle’s minimum essential medium (MEM; Sigma, Munich, Germany), supplemented with 10% fetal calf serum (Gibco Thermo Fisher Scientific, Darmstadt, Germany), 2 mM L-glutamine, and required concentrations of geneticin in a range of 0.4–1 mg/mL. A HEK293mTRPC5-YFP cell line was maintained and induced as described before. […] For electrophysiological and single cell [Ca^2+]i imaging experiments, PC12 cells were plated onto 25 mm poly-L-lysine-coated glass coverslips and measured 24–48 h after seeding. […]
The primary compound screen and the generation of concentration response curves in HEK293 cells or in PC12 cells were performed by using a custom-made fluorescence plate imager built into a robotic liquid handling station equipped with a 96-tip multichannel head (Freedom Evo 150, Tecan, Männedorf, Switzerland) as described previously. […] Plates were mounted on the imager, and fluorescence signals were recorded with a cooled Zyla 5.5 camera (Andor, Belfast, UK) through a 515 nm long pass filter. […] When inhibitory potencies were evaluated, a second pipetting step with the respective reference agonist was performed. […]

The subject of assay [1] is PC12 cells (native TRPC3 channel complexes). Description: Whole-cell patch-clamp recordings in PC12 cells. Type of assay: cell-based, rat. To be noted: 50 µM artemisinin, whole cell. On the procedure: The recordings of TRPC3, TRPC6, or TRPC7 membrane currents in HEK293 or PC12 cells were realized by using a Multiclamp 700B amplifier with a Digidata 1440A digitizer controlled by the PClamp 10 software (all Molecular Devices, Sunnyvale, CA, U.S.A.). Recordings were obtained at room temperature either in the whole-cell or in an outside-out configuration as indicated. Cells were seeded as described above, but at lower density, mounted in a chamber (Warner Instruments, Hamden, CT; U.S.A.), placed onto the stage of an inverted microscope, and perfused with required solution. The standard extracellular solution contained 140 mM NaCl, 5 mM CsCl, 2 mM MgCl2, 1 mM CaCl2, 10 mM HEPES, and 0.035% BSA adjusted to pH 7.4 with NaOH. The composition of standard intracellular solution was 140 mM CsCl, 1 mM MgCl2, 5 mM EGTA, and 10 mM HEPES adjusted to pH 7.25 with CsOH; the osmolarity was 295 mOsm l^−1. In outside-out measurements, the pipette solution contained 5 mM EGTA and 1.1 mM CaCl2 to achieve a calculated free Ca^2+ concentration of 100 nM.
Patch pipettes were pulled from borosilicate glass capillaries BG150F-8P (Science Products, Hofheim, Germany) with a PIP6 pipette puller (HEKA Elektronik, Lambrecht, Germany). […] In all whole-cell measurements, the series resistance was lower than 13 MΩ, and compensated by 70%. If the access was unstable during the experiment (increase in series resistance by more than 15% at the end of the experiment), the cell was omitted from the analysis. To record current/voltage (I/V) curves, voltage ramps (400 mV s^−1) ranging from –100 to +100 mV were applied. Currents were filtered at 3 kHz with a four-pole Bessel filter and sampled at 10 kHz. […]
Figure 9 Artemisinin-induced ionic currents in HEK293 cells and in PC12 cells are sensitive to established TRPC3 inhibitors. […] Concentration–response curves were normalized to responses measured without an inhibitor (controls), and IC50 values were obtained by fitting a four-parameter Hill equation to the data. […]
On the technique in general: The patch-clamp technique gives a direct electrical read-out from membranes.

With `C[C@@H]1CC[C@H]2[C@@H](C)C(=O)O[C@@H]3O[C@@]4(C)CC[C@@H]1[C@]32OO4` [artemisinin], the “[Ca2+]i response, TRPV2” value in the assay with rTRPV2-YFP (100 µM) is “none of the cell lines responded”. In addition, the “response of TRPV2-expressing cells to 2-APB after artemisinin” value in the assay on rTRPV2-YFP (100 µM artemisinin, 2-APB final concentration 300 µM) was “slightly increased response”. Besides, the “currents in PC12 cells” value in assay [1] is “induced a Ca^2+ influx and TRPC3-like currents”.
